Data reported in US9676780B2, “Piperazine-substituted [1,2,4]triazolo[1,5-C]quinazolin-5-amine compounds with A2A antagonist properties” (MERCK SHARP & DOHME CORP., priority 2012, dated 2017).

target: T1, human A2a receptor (Homo sapiens, UniProt P29274); assay: A2a receptor competition binding assay (Scintillation Proximity, tritiated radioligand); settings: membranes from HEK293 cells expressing the human A2a receptor; 0.5 nM tritiated ligand; SPA beads; one hour at room temperature; read-out: A2a EC50
T1 construct: purchased Perkin-Elmer RBHA2AM400UA; host or cells: HEK293
T1 sequence (P29274 whole entry): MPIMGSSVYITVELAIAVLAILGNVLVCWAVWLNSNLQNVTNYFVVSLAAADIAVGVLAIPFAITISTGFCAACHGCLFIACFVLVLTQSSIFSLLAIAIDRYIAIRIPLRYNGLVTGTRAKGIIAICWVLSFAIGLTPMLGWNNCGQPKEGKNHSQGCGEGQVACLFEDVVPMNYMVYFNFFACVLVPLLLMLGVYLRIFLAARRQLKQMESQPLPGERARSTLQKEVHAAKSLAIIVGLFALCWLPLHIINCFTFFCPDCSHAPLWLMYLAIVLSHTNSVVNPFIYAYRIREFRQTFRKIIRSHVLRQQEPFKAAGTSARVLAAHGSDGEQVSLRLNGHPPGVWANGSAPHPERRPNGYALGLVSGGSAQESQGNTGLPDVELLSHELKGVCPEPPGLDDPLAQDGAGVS
Procedure: Binding affinities of compounds of the invention for the human A2a receptor were determined in a competition binding assay using Scintillation Proximity technology. […] The beads were then allowed to settle to the bottom of the wells for 1 hr, after which the membrane-associated radioactivity was determined by scintillation counting in a TopCount microplate reader. Ki values were determined using the Cheng-Prusoff equation.
• HEK293 cells expressing the human, rat, dog or monkey adenosine 2a receptor (Purchased from Perkin-Elmer # RBHA2AM400UA). • The Tritiated compound was prepared in-house by MRL Radiochemistry according to published methods. • Wheatgerm agglutinin-coated yttrium silicate SPA beads (GE Healthcare #RPNQ0023). […] This is a 2.5× solution. The final concentration in the assay is 0.5 nM. Calculate the concentration by counting two 5 ul aliquots. Membrane Preparation • Use 0.25 ug of membrane/well. Dilute membranes to 9.7 ug/ml in assay buffer. Treat with 20 ug/ml adenosine deaminase (ADA) for 15 minutes at room temperature to degrade endogenous adenosine. Membrane-Bead Mixture • Use 100 ug/well wheatgerm agglutinin-coated yttrium silicate SPA beads. • Mix ADA-treated membranes and SPA beads together for 30 min prior to assay. […] Incubate for one hour at room temperature with agitation. • Include total binding (assay buffer+1% DMSO) and non-specific binding (CGS15943, 1 uM) wells. Counting • Allow the beads to settle for one hour. • Count in TopCount. Calculations • A curve fitting program (i.e., Prism, Activity Base, Chemcart) is used to determine the EC50.
The Ki value is calculated using the Cheng-Prusoff equation. Ki=EC50/(1+(radioligand concentration/Kd))

Compound | EC50 [nM]
COc1cccc2c1nc(N)n1nc(CN3CCN(C)CC3c3ccccc3)nc21 (centres unmarked) [Ex-3] | 190
COc1cccc2c1nc(N)n1nc(CN3CC(C)N(c4ccccc4)CC3C)nc21 (centres unmarked) [Ex-8] | 21.2
COc1cc(F)cc2c1nc(N)n1nc(CN3CCN(c4ccc(F)cc4)CC3C)nc21 (centres unmarked) [Ex-11] | 7.68
CCn1ccnc1CN1CCN(Cc2nc3c4cccc(OC)c4nc(N)n3n2)C(C)C1 (centres unmarked) [Ex-12] | 88
COc1cccc2c1nc(N)n1nc(CN3CCN(Cc4nc5ccncc5n4C)CC3C)nc21 (centres unmarked) [Ex-13] | 87.1
CCn1cncc1CN1CCN(Cc2nc3c4cccc(OC)c4nc(N)n3n2)C(C)C1 (centres unmarked) [Ex-14] | 52.8
COc1cccc2c1nc(N)n1nc(CN3CCN(Cc4c(C)nc5scnn45)CC3C)nc21 (centres unmarked) [Ex-15] | 8.1
COc1cccc2c1nc(N)n1nc(CN3CCN(Cc4ncco4)CC3C)nc21 (centres unmarked) [Ex-16] | 36.5
COc1cccc2c1nc(N)n1nc(CN3CCN(Cc4nccs4)CC3C)nc21 (centres unmarked) [Ex-17] | 26.7
COc1cccc2c1nc(N)n1nc(CN3CCN(Cc4cccc(C)n4)CC3C)nc21 (centres unmarked) [Ex-18] | 26.9
COc1cccc2c1nc(N)n1nc(CN3CCN(Cc4ncccc4F)CC3C)nc21 (centres unmarked) [Ex-19] | 29.6
COc1cc(CN2CCN(Cc3nc4c5cccc(OC)c5nc(N)n4n3)C(C)C2)cc(OC)c1 (centres unmarked) [Ex-20] | 51.7
COc1cccc2c1nc(N)n1nc(CN3CCN(Cc4ccc(F)cc4F)CC3C)nc21 (centres unmarked) [Ex-21] | 20.3
COc1cccc2c1nc(N)n1nc(CN3CCN(Cc4cccc(Oc5ccccc5)c4)CC3C)nc21 (centres unmarked) [Ex-22] | 10
COc1cccc2c1nc(N)n1nc(CN3CCN(Cc4ccc(F)c(F)c4)CC3C)nc21 (centres unmarked) [Ex-23] | 17.7
COc1cccc2c1nc(N)n1nc(CN3CCN(Cc4c(F)cccc4F)CC3C)nc21 (centres unmarked) [Ex-24] | 14.4
COc1ccc(CN2CCN(Cc3nc4c5cccc(OC)c5nc(N)n4n3)C(C)C2)cc1F (centres unmarked) [Ex-25] | 34.5
COc1cccc2c1nc(N)n1nc(CN3CCN(Cc4cc(F)cc(F)c4)CC3C)nc21 (centres unmarked) [Ex-26] | 21.8

Compound | EC50 [nM]
COc1cccc2c1nc(N)n1nc(CN3CCN(Cc4cccc(Cl)c4F)CC3C)nc21 (centres unmarked) [Ex-27] | 6.8
COc1cccc2c1nc(N)n1nc(CN3CCN(Cc4ccc(F)c(C)c4)CC3C)nc21 (centres unmarked) [Ex-28] | 15.6
COc1cccc2c1nc(N)n1nc(CN3CCN(Cc4ccc(F)c(F)c4F)CC3C)nc21 (centres unmarked) [Ex-29] | 18.6
COc1cccc2c1nc(N)n1nc(CN3CCN(Cc4cc(F)c(F)cc4F)CC3C)nc21 (centres unmarked) [Ex-30] | 9.2
COc1cccc2c1nc(N)n1nc(CN3CCN(Cc4ccc(N5CCCC5)cc4)CC3C)nc21 (centres unmarked) [Ex-31] | 49.1
COc1cccc2c1nc(N)n1nc(CN3CCN(Cc4ccc(N(C)C)cc4)CC3C)nc21 (centres unmarked) [Ex-32] | 78.3
COc1cccc2c1nc(N)n1nc(CN3CCN(Cc4ccc(N5CCCC5=O)cc4)CC3C)nc21 (centres unmarked) [Ex-33] | 35.9
COc1cccc2c1nc(N)n1nc(CN3CCN(c4ccc(Cl)cc4)C[C@@H]3C)nc21 [Ex-34] | 18.5
COc1cccc2c1nc(N)n1nc(CN3CCN(c4ccc(Cl)cc4)C[C@H]3C)nc21 [Ex-35] | 3.7
COc1cccc2c1nc(N)n1nc(CN3CCN(Cc4cc(C)ccc4C)CC3C)nc21 (centres unmarked) [Ex-36] | 18.1
COc1cc(F)cc2c1nc(N)n1nc(CN3CCN(c4ccc(F)cc4)CC3C)nc21 (centres unmarked) [Ex-37] | 48.9
COc1cccc2c1nc(N)n1nc(CN3CCN(c4ccc(C(F)(F)F)cn4)CC3C)nc21 (centres unmarked) [Ex-40] | 22.6
COc1cc(F)cc2c1nc(N)n1nc(CN3CCN(c4ccc(F)cn4)CC3C)nc21 (centres unmarked) [Ex-41] | 18.1
COc1cc(F)cc2c1nc(N)n1nc(CN3CCN(c4ccc(C(F)(F)F)cn4)CC3C)nc21 (centres unmarked) [Ex-42] | 28.3
COc1cccc2c1nc(N)n1nc(CN3CCN(c4ccc(F)cc4)C[C@H]3C3CC3)nc21 [Ex-43] | 2.11
COc1cccc2c1nc(N)n1nc(CN3CCN(c4ccc(F)cc4)C[C@H]3C(C)C)nc21 [Ex-44] | 3.6
CC[C@@H]1CN(c2ccc(F)cc2)CCN1Cc1nc2c3cccc(OC)c3nc(N)n2n1 [Ex-45] | 5.7
